The values that follow come from patent US8518957B2, “Methanocarba adenosine derivatives, pharmaceutical compositions, and method of reducing intraocular pressure” (The United States of America, as represented by the …, priority 2009, dated 2013).

Read-outs that look alike come from different tables or passages of the source.

For experiment [1], the target named is T1, human A1 AR (Homo sapiens, UniProt P30542).
T1 construct: expressed in transfected cells
T1 sequence (P30542 1-326): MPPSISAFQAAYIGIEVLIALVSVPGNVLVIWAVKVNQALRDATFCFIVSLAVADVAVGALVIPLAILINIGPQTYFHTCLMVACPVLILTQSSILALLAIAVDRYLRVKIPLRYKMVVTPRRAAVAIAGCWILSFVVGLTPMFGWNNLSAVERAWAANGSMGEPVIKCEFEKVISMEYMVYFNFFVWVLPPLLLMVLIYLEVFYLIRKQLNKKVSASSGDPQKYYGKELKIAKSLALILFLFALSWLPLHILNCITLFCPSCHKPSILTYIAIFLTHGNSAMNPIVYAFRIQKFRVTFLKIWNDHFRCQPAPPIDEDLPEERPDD
The following applies: at 10 μM; model compounds; values from Tosh et al. and Melman et al.; cited from earlier work.

Experiment [2] deals with T1, human A1 AR. Nature of the experiment: Radioligand binding at human A1 AR ([3H]NECA, membranes of CHO cells). The following applies: for % inhibition, A1: inhibition of radioligand binding at 10 μM, [3H]36, CHO cells. A digest of the protocol:
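Membranes from CHO (hA1, hA3) or HEK-293 (hA2A) cells were pretreated with adenosine deaminase and incubated 60 min at 25° C in pH 7.5 Tris/10 mM MgCl2. Radioligands were A1 [3H]NECA 3.5 nM, A2A [3H]CGS21680 10 nM and A3 [125I]I-AB-MECA 0.34 nM. Bound ligand was filtered and Ki derived.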

Another experiment addresses T2, human A3AR (Homo sapiens, UniProt P0DMS8).
T2 construct: expressed in transfected cells
T2 sequence (P0DMS8 1-318): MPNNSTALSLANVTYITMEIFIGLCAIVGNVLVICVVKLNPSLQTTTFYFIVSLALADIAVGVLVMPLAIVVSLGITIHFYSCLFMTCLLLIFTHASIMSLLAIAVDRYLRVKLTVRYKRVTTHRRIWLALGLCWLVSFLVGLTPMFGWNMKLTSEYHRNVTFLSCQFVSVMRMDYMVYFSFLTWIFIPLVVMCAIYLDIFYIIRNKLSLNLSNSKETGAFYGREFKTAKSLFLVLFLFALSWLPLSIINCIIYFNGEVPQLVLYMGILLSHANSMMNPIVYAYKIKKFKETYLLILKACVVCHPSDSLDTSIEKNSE
The settings on record: concentration 10 μM; values from Tosh et al.; cited from earlier work.

With `C#CCCCCC#Cc1nc(NCc2cccc(Cl)c2)c2ncn(C3C(O)C(O)C4(C(=O)NC)CC34)c2n1` (stereo not drawn) [Compound 9, (1′S, 2′R, 3′S, 4′S, 5′S)-4′-[6-(3-Chlorobenzylamino)-2-(1,7-octadiynyl)-9H-purin-9-yl]-2′,3′-dihydroxybicyclo[3.1.0]hexane-1′-carboxylic acid N-methylamide], the “% inhibition, A1” value on human A1 AR [1] is “(31%”.

In turn, `CNC(=O)[C@@]12C[C@@H]1[C@@H](n1cnc3c(NCc4cccc(Cl)c4)nc(C#CCCCCc4cn(-c5ccc(F)c([N+](=O)[O-])c5)nn4)nc31)[C@H](O)[C@@H]2O` [Compound 11] returned an inhibition at 10 µM on human A1 AR [2] of 8%.

As to `CNC(=O)[C@@]12C[C@@H]1[C@@H](n1cnc3c(NCc4cccc(Cl)c4)nc(C#CCCCCc4cn(-c5ccc(N)cc5)nn4)nc31)[C@H](O)[C@@H]2O` [Compound 12, (1S,2R,3S,4R,5S)-4′-(6-(3-Chlorobenzylamino)-2-(6-(1-(4-amino-phenyl)-1H-1,2,3-triazol-4-yl)hex-1-ynyl)-9H-purin-9-yl)-2′,3′-dihydroxybicyclo[3.1.0]hexane-1′-carboxylic acid N-methylamide], the inhibition at 10 µM at human A1 AR [2] was 3%.

Regarding `CNC(=O)[C@@]12C[C@@H]1[C@@H](n1cnc3c(NCc4cccc(Cl)c4)nc(C#CCCCCc4cn(-c5ccc(C(=O)O)cc5)nn4)nc31)[C@H](O)[C@@H]2O` [Compound 13, (1S,2R,3S,4R,5S)-4′-(6-(3-Chlorobenzylamino)-2-(6-(1-(4-carboxyl-phenyl)-1H-1,2,3-triazol-4-yl)hex-1-ynyl)-9H-purin-9-yl)-2′,3′-dihydroxybicyclo[3.1.0]hexane-1′-carboxylic acid N-methylamide], the inhibition at 10 µM at human A1 AR [2] was 0%.

As to `CNC(=O)[C@@]12C[C@@H]1[C@@H](n1cnc3c(NCc4cccc(Cl)c4)nc(C#CCCCCc4cn(-c5ccc(C(=O)CBr)cc5)nn4)nc31)[C@H](O)[C@@H]2O` [Compound 14, (1S,2R,3S,4R,5S)-6-(3-Chlorobenzylamino)-4-(2-(6-(4-(2-bromoacetyl)phenyl)-1H-1,2,3-triazol-4-yphex-1-ynyl)-9H-purin-9-yl)-2′,3′-dihydroxybicyclo[3.1.0]hexane-1′-carboxylic acid N-methylamide], 10 µM produced 12% inhibition at human A1 AR [2].

Regarding `CNC(=O)[C@@]12C[C@@H]1[C@@H](n1cnc3c(NCc4cccc(Cl)c4)nc(C#CCCCCc4cn(CCNC(C)=O)nn4)nc31)[C@H](O)[C@@H]2O` [Compound 15, (1S,2R,3S,4R,5S)-6-(3-Chlorobenzylamino)-(2-(6-(1-(4-acetamidoethyl)-1H-1,2,3-triazol-4-yl)hex-1-ynyl)-9H-purin-9-yl)-2′,3′-dihydroxybicyclo[3.1.0]hexane-1′-carboxylic acid N-methylamide], at 10 µM the inhibition on human A1 AR [2] was 12%. The “% Inhibition of cAMP accumulation at the hA3AR” value on human A3AR is listed as 93.6 ± 17.7%.

Consider `CNC(=O)[C@@]12C[C@@H]1[C@@H](n1cnc3c(NCc4cccc(Cl)c4)nc(C#CCCCCc4cn(CCCCN)nn4)nc31)[C@H](O)[C@@H]2O` [Compound 16, (1S,2R,3S,4R,5S)-6-(3-Chlorobenzylamino)-(2-(6-(1-(4-aminobutyl)-1H-1,2,3-triazol-4-yl)hex-1-ynyl)-9H-purin-9-yl)-2′,3′-dihydroxybicyclo[3.1.0]hexane-1′-carboxylic acid N-methylamide], for which, at human A1 AR [2], the inhibition at 10 µM was 13%.

On to `CNC(=O)[C@@]12C[C@@H]1[C@@H](n1cnc3c(NCc4cccc(Cl)c4)nc(C#CCCCCc4cn(CCCCNC(C)=O)nn4)nc31)[C@H](O)[C@@H]2O` [Compound 17, (1S,2R,3S,4R,5S)-6-(3-Chlorobenzylamino)-(2-(6-(1-(4-acetamidobutyl)-1H-1,2,3-triazol-4-yl)hex-1-ynyl)-9H-purin-9-yl)-2′,3′-dihydroxybicyclo[3.1.0]hexane-1′-carboxylic acid N-methylamide], for which the inhibition at 10 µM on human A1 AR [2] was found to be 17%.

In the case of `CNC(=O)[C@@]12C[C@@H]1[C@@H](n1cnc3c(NCc4cccc(Cl)c4)nc(C#CCCCCc4cn(C56CC7CC(CC(C7)C5)C6)nn4)nc31)[C@H](O)[C@@H]2O` [Compound 18, (1S,2R,3S,4R,5S)-6-(3-Chlorobenzylamino)-(2-(6-(1-(adamantyl)-1H-1,2,3-triazol-4-yl)hex-1-ynyl)-9H-purin-9-yl)-2′,3′-dihydroxybicyclo[3.1.0]hexane-1′-carboxylic acid N-methylamide], 10 µM produced 22% inhibition at human A1 AR [2].

Compound `CNC(=O)[C@@]12C[C@@H]1[C@@H](n1cnc3c(NCc4cccc(Cl)c4)nc(C#CCCCCc4cn(Cc5ccc(-n6sccc6=O)cc5)nn4)nc31)[C@H](O)[C@@H]2O` [Compound 19, (1S,2R,3S,4R,5S)-6-(3-Chlorobenzylamino)-(2-(1-(4-3-oxoisothiazol-2(3H)-yl)benzyl-1H-1,2,3-triazol-4-yphex-1-ynyl)-9H-purin-9-yl)-2′,3′-dihydroxybicyclo[3.1.0]hexane-β-carboxylic acid N-methylamide] displayed an inhibition at 10 µM at human A1 AR [2] of 15%.

Consider `CNC(=O)[C@@]12C[C@@H]1[C@@H](n1cnc3c(NCc4cccc(Cl)c4)nc(C#CCCCCc4cn(CCCCCCNC(=O)CCCC[C@@H]5SC[C@@H]6NC(=O)N[C@@H]65)nn4)nc31)[C@H](O)[C@@H]2O` [Compound 20, (1S,2R,3S,4R,5S)-6-(3-Chlorobenzylamino)-(2-(6-(1-(6-(5-(3aS,4S,6aR)-oxohexahydro-1H-thieno[3,4-d]imidazol-4-yl)pentanamido)hexyl-1H-1,2,3-triazol-4-yl)hex-1-ynyl)-9H-purin-9-yl)-2′,3′-dihydroxybicyclo[3.1.0]hexane-1′-carboxylic acid N-methylamide], for which, at human A1 AR [2], the inhibition at 10 µM worked out at 0%.

For the compound `CNC(=O)[C@@]12C[C@@H]1[C@@H](n1cnc3c(NCc4cccc(Cl)c4)nc(C#CCCCCc4cn(CCCCCCC(=O)NCCCCCCNC(=O)CCCC[C@@H]5SC[C@@H]6NC(=O)N[C@@H]65)nn4)nc31)[C@H](O)[C@@H]2O` [Compound 21], the “% inhibition, A1” value on human A1 AR [2] is “(0 ± 0%)”.

For `CNC(=O)[C@@]12C[C@@H]1[C@@H](n1cnc3c(NCc4cccc(Cl)c4)nc(C#CCCCCc4cn(CCCCCCNC(=O)c5ccc(-c6c7ccc(=N)c(S(=O)(=O)O)c-7oc7c(S(=O)(=O)O)c(N)ccc67)c(C(=O)O)c5)nn4)nc31)[C@H](O)[C@@H]2O` [Compound 23], the “% inhibition, A1” value on human A1 AR [2] was “(0 ± 0%)”.

Regarding `CNC(=O)[C@@]12C[C@@H]1[C@@H](n1cnc3c(NCc4cccc(Cl)c4)nc(-c4nnn(-c5ccc(N=C=S)cc5)c4CCCCc4cn(-c5ccc(N=C=S)cc5)nn4)nc31)[C@H](O)[C@@H]2O` [Compound 25, (1S,2R,3S,4R,5S)-6-(3-Chlorobenzylamino)-(2-(1,6-bis(4-isothiocyante-phenyl)-1H-bis(1,2,3-triazol-4-yl)hex-1-ynyl)-9H-purin-9-yl)-2′,3′-dihydroxybicyclo[3.1.0]hexane-1′-carboxylic acid N-methylamide], on human A1 AR [2], the inhibition at 10 µM was found to be 4%.

Compound `CNC(=O)[C@@]12C[C@@H]1[C@@H](n1cnc3c(NCc4cccc(Cl)c4)nc(C#CCCCCc4cn(-c5ccc(N=C=S)cc5)nn4)nc31)[C@H](O)[C@@H]2O` [Compound 26, (1S,2R,3S,4R,5S)-6-(3-Chlorobenzylamino)-(2-(6-(1-(4-isothiocyante-phenyl)-1H-1,2,3-triazol-4-yl)hex-1-ynyl)-9H-purin-9-yl)-2′,3′-dihydroxybicyclo[3.1.0]hexane-1′-carboxylic acid N-methylamide] registered an inhibition at 10 µM at human A1 AR [2] of 2%.
